Source: US12612410B2 (CHILDREN'S HOSPITAL MEDICAL CENTER, priority 2020, dated 2026)

These compounds were tested against T1, FLT3 N841I (Homo sapiens, UniProt P36888, N841I) (assay: DiscoverX KINOMEscan competition binding, FLT3 N841I).
T1 construct: host or cells: E. coli BL21-derived host (T7 phage) or HEK-293
T1 sequence (P36888 27-993 N841I): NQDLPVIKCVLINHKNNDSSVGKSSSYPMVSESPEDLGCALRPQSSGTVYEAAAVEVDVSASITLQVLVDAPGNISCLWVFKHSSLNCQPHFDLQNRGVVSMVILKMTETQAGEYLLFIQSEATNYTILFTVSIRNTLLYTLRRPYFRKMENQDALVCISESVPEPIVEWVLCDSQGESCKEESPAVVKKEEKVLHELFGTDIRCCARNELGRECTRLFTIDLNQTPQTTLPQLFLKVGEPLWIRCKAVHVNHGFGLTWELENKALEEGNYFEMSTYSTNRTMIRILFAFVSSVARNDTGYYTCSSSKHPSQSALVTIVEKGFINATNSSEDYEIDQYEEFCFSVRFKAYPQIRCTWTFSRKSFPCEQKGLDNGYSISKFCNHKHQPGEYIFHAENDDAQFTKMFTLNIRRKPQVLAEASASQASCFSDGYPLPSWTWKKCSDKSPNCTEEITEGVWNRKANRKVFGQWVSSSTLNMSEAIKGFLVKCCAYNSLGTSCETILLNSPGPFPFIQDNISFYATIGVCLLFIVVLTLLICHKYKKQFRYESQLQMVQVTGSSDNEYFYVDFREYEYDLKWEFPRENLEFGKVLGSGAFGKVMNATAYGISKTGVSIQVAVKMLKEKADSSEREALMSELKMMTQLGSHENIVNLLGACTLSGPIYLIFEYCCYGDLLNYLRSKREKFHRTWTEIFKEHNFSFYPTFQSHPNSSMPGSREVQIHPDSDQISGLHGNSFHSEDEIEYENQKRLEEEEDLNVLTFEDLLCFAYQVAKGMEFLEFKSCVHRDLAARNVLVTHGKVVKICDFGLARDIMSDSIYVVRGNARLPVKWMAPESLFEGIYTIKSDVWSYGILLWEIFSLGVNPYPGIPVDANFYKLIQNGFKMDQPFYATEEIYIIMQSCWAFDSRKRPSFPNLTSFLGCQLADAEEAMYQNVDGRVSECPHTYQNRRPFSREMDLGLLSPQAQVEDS
Text: Kinase binding data were obtained for various exemplary compounds prepared according to Examples 1-24 using the DiscoverX KINOMVIEscan® active site-directed competition binding site-directed assay protocol described below. […] As a result, the data report thermodynamic interaction affinities (Kd values), rather than IC50 values that are dependent on ATP concentrations. The assay uses a DNA-tagged version of the protein kinase, and an immobilized ligand bound to a solid support. Compounds that directly or indirectly prevent kinase binding to the immobilized ligand reduce the amount of kinase captured on the solid support, which is detected using an ultra-sensitive qPCR method. Affinity constants reported from the assay have been reported to be independent of the immobilized ligand used that is coupled to the solid support (See supplemental information in Fabian, M. A. et. al., (2005) Nat. Biotechnol. 23, 329-336; Wodicka, L. M. et. al., (2010) Chem. Biol. 17, 1241-1249.)
Kinase-tagged T7 phage strains were prepared in an E. coli host derived from the BL21 strain. E. coli were grown to log-phase and infected with T7 phage and incubated with shaking at 32° C. until lysis. The lysates were centrifuged and filtered to remove cell debris. The remaining kinases were produced in HEK-293 cells and subsequently tagged with DNA for qPCR detection. Streptavidin-coated magnetic beads were treated with biotinylated small molecule ligands for 30 minutes at room temperature to generate affinity resins for kinase assays. The liganded beads were blocked with excess biotin and washed with blocking buffer (SeaBlock (Pierce), 1% BSA, 0.05% Tween 20, 1 mM DTT) to remove unbound ligand and to reduce non-specific binding. Binding reactions were assembled by combining kinases, liganded affinity beads, and test compounds in 1× binding buffer (20% SeaBlock, 0.17×PBS, 0.05% Tween 20, 6 mM DTT). Test compounds were prepared as 111× stocks in 100% DMSO. Kds were determined using an 11-point 3-fold compound dilution series with three DMSO control points. All compounds for Kd measurements are distributed by acoustic transfer (non-contact dispensing) in 100% DMSO. The compounds were then diluted directly into the assays such that the final concentration of DMSO was 0.9%. All reactions were performed in polypropylene 384-well plates. Each was a final volume of 0.02 mL. The assay plates were incubated at room temperature with shaking for 1 hour and the affinity beads were washed with wash buffer (1×PBS, 0.05% Tween 20). The beads were then re-suspended in elution buffer (1×PBS, 0.05% Tween 20, 0.5 μM nonbiotinylated affinity ligand) and incubated at room temperature with shaking for 30 minutes. The kinase concentration in the eluates was measured by qPCR.
Binding constants (Kds) were calculated with a standard dose-response curve using the Hill equation. The Hill Slope was set to −1. Curves were fitted using a non-linear least square fit with the Levenberg-Marquardt algorithm.
A Kd of 0.12 nM was found for `CC1(c2cn3c(-c4cccc(N[C@H]5CNC[C@@H]5F)n4)cnc3cn2)CC1` [Compound 1, N-((3S,4S)-4-fluoropyrrolidin-3-yl)-6-(6-(1-methylcyclopropyl)imidazo[1,2-a]pyrazin-3-yl)pyridin-2-amine] in this work.
A Kd of 0.12 nM was found for `CC1(c2cn3c(-c4cccc(N[C@@H]5CCNC5)n4)cnc3cn2)CC1` [Compound 3, (R)-6-(6-(1-methylcyclopropyl)imidazo[1,2-a]pyrazin-3-yl)-N-(pyrrolidin-3-yl)pyridin-2-amine] in this work.
A Kd of 0.091 nM was found for `CC1(c2cn3c(-c4cccc(N[C@H]5CNCC56CC6)n4)cnc3cn2)CC1` [Compound 5, (R)-N-(6-(6-(1-methylcyclopropyl)imidazo[1,2-a]pyrazin-3-yl)pyridin-2-yl)-5-azaspiro[2.4]heptan-7-amine] in this work.
A Kd of 0.29 nM was found for `FC(F)(F)C1(c2cn3c(-c4cccc(N[C@@H]5CCNC5)n4)cnc3cn2)CC1` [Compound 10, (R)-N-(pyrrolidin-3-yl)-6-(6-(1-(trifluoromethyl)cyclopropyl)imidazo[1,2-a]pyrazin-3-yl)pyridin-2-amine] in this work.
A Kd of 0.65 nM was found for `FC(F)c1cn2c(-c3cccc(N[C@H]4CNC[C@@H]4F)n3)cnc2cn1` [Compound 16, 6-(6-(difluoromethyl)imidazo[1,2-a]pyrazin-3-yl)-N-((3S,4S)-4-fluoropyrrolidin-3-yl)pyridin-2-amine] in this work.
A Kd of 0.27 nM was found for `FC(F)c1cn2c(-c3cccc(N[C@H]4CNCC[C@@H]4F)n3)cnc2cn1` [Compound 25, 6-(6-(difluoromethyl)imidazo[1,2-a]pyrazin-3-yl)-N-((3S,4S)-4-fluoropiperidin-3-yl)pyridin-2-amine] in this work.
A Kd of 3.5 nM was found for `CC(C)(O)c1cn2c(-c3cccc(N[C@@H]4CCCNC4)n3)cnc2cn1` [Compound 30, (R)-2-(3-(6-(piperidin-3-ylamino)pyridin-2-yl)imidazo[1,2-a]pyrazin-6-yl)propan-2-ol] in this work.
A Kd of 2.1 nM was found for `CC(C)(O)c1cn2c(-c3cccc(N[C@H]4CNCC[C@@H]4F)n3)cnc2cn1` [Compound 31, 2-(3-(6-(((3S,4S)-4-fluoropiperidin-3-yl)amino)pyridin-2-yl)imidazo[1,2-a]pyrazin-6-yl)propan-2-ol] in this work.
A Kd of 0.52 nM was found for `FC(F)(F)COc1cn2c(-c3cccc(N[C@@H]4CCNC4)n3)cnc2cn1` [Compound 38, (R)-N-(pyrrolidin-3-yl)-6-(6-(2,2,2-trifluoroethoxy)imidazo[1,2-a]pyrazin-3-yl)pyridin-2-amine] in this work.
A Kd of 0.25 nM was found for `F[C@H]1CNC[C@@H]1Nc1cccc(-c2cnc3cnc(C4CC4)cn23)n1` [Compound 50, 6-(6-cyclopropylimidazo[1,2-a]pyrazin-3-yl)-N-((3S,4S)-4-fluoropyrrolidin-3-yl)pyridin-2-amine] in this work.
A Kd of 0.24 nM was found for `Cn1cc(-c2cn3c(-c4cccc(N[C@H]5CNC[C@@H]5F)n4)cnc3cn2)cn1` [Compound 52, N-((3S,4S)-4-fluoropyrrolidin-3-yl)-6-(6-(1-methyl-1H-pyrazol-4-yl)imidazo[1,2-a]pyrazin-3-yl)pyridin-2-amine] in this work.
